Activity calls are given as the source filed them. No cut-off for these calls is given here.
Experiments:
Mus musculus [1] = assay: Antifibrotic activity against BDL-induced C57BL/6J mouse hepatic fibrosis model assessed as reduction in alphaSMA expression in liver at 15 to 30 mg/kg, po administered via gavage starting from 3 days post-BDL by immunohistochemical staining based assay; type: functional, organism-based; details: dose 15-30 mg/kg
LX-2 [2] = assay: Inhibition of TGFbeta1-induced AKT phosphorylation in human LX-2 cells preincubated for 2 hrs followed by […] stimulation and measured after 2 hrs by Western blot analysis; type: cell-based; details: dose 5-20 µM, time 4.0 hrs
Mus musculus [3] = assay: Antifibrotic activity against BDL-induced C57BL/6J mouse hepatic fibrosis model assessed as reduction in collagen 1 expression in liver at 15 to 30 mg/kg, po administered via gavage starting from 3 days post-BDL by Western blot analysis; type: functional, organism-based; details: dose 15-30 mg/kg
RAW264.7 [4] = assay: Antiinflammatory activity in mouse RAW264.7 cells assessed as inhibition of TGFbeta1-induced alpha-SMA mRNA expression at 5 to 20 uM preincubated for 2 hrs […] and measured after 48 hrs by qRT-PCR analysis; type: functional, cell-based; details: dose 5-20 µM, time 50.0 hrs
RAW264.7 [5] = assay: Inhibition of LPS-induced NFkappaB transcriptional activity in mouse RAW264.7 cells at 5 uM preincubated for 2 hrs followed by LPS stimulation and measured after 6 hrs by luciferase reporter gene assay relative to control; type: cell-based; details: time 8.0 hrs
[6] = molecular target: Mothers against decapentaplegic homolog 3 (Homo sapiens) (UniProt P84022); assay: Inhibition of TGFbeta1-induced Smad3 phosphorylation in human LX-2 cells preincubated for 2 hrs followed by […] stimulation and measured after 2 hrs by Western blot analysis; type: cell-based; details: dose 5-20 µM, time 4.0 hrs
Mothers against decapentaplegic homolog 3 (Homo sapiens), sequence (P84022 2-425 limits assumed): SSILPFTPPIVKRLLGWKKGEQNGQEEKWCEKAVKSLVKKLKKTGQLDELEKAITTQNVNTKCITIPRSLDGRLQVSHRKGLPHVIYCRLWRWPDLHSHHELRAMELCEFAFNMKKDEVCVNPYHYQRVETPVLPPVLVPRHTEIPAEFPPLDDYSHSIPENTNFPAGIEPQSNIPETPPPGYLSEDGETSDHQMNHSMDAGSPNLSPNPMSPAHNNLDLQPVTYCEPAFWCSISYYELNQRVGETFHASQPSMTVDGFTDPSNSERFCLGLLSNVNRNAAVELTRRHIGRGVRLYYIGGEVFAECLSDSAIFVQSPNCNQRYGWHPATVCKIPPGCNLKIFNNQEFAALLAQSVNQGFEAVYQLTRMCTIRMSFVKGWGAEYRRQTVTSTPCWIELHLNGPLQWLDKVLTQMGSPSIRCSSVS

Mus musculus [7] = assay: Antifibrotic activity against CCL4-induced C57BL/6J mouse hepatic fibrosis model assessed as reduction in alphaSMA expression in liver at 15 to 30 mg/kg, po administered via gavage for 4 weeks starting from 5th week of CCL4 stimulation by immunohistochemical staining based assay; type: functional, organism-based; details: dose 15-30 mg/kg
Mus musculus [8] = assay: Antifibrotic activity against BDL-induced C57BL/6J mouse hepatic fibrosis model assessed as reduction in collagen 1 mRNA expression in liver at 15 to 30 mg/kg, po administered via gavage starting from 3 days post-BDL by qRT-PCR analysis; type: functional, organism-based; details: dose 15-30 mg/kg
LX-2 [9] = assay: Inhibition of TGFbeta1-induced ERK1/2 phosphorylation in human LX-2 cells at 5 to 20 uM preincubated for 2 hrs followed by […] stimulation and measured after 2 hrs by Western blot analysis; type: cell-based; details: dose 5-20 µM, time 4.0 hrs
Mus musculus [10] = assay: In vivo inhibition of JNK phosphorylation in BDL-induced C57BL/6J mouse hepatic fibrosis model at 15 to 30 mg/kg, po administered via gavage starting from 3 days post-BDL by Western blot analysis; type: functional, organism-based; details: dose 15-30 mg/kg
[11] = molecular target: Mothers against decapentaplegic homolog 2 (Homo sapiens) (UniProt Q15796); assay: Inhibition of TGFbeta1-induced Smad2 phosphorylation in human LX-2 cells preincubated for 2 hrs followed by […] stimulation and measured after 2 hrs by Western blot analysis; type: cell-based; details: dose 5-20 µM, time 4.0 hrs
Mothers against decapentaplegic homolog 2 (Homo sapiens), sequence (Q15796 whole entry): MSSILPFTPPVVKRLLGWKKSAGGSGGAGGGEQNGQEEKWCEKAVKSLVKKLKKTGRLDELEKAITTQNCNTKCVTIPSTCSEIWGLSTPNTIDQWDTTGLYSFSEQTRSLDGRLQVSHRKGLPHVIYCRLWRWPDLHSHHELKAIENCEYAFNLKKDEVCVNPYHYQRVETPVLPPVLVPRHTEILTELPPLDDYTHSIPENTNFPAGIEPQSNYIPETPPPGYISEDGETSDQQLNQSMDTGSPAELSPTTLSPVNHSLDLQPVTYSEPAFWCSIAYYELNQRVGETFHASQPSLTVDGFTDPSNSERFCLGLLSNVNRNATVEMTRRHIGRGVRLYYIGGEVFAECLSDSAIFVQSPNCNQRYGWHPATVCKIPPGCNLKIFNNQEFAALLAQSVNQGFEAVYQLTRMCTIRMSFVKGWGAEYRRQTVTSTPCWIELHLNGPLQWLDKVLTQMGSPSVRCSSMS

Mus musculus [12] = assay: In vivo inhibition of p65 phosphorylation in CCL4-induced C57BL/6J mouse hepatic fibrosis model at 15 to 30 mg/kg, po administered via gavage for 4 weeks starting from 5th week of CCL4 stimulation by Western blot analysis; type: functional, organism-based; details: dose 15-30 mg/kg
LX-2 [13] = assay: Inhibition of FBS-induced cell migration in human LX-2 cells assessed as reduction in wound healing measured after 24 hrs by scratch wound assay; type: functional, cell-based; details: dose 5-20 µM
Mus musculus [14] = assay: In vivo inhibition of p38 phosphorylation in CCL4-induced C57BL/6J mouse hepatic fibrosis model at 15 to 30 mg/kg, po administered via gavage for 4 weeks starting from 5th week of CCL4 stimulation by Western blot analysis; type: functional, organism-based; details: dose 15-30 mg/kg
Mus musculus [15] = assay: In vivo inhibition of Smad3 phosphorylation in BDL-induced C57BL/6J mouse hepatic fibrosis model at 15 to 30 mg/kg, po administered via gavage starting from 3 days post-BDL by Western blot analysis; type: functional, organism-based; details: dose 15-30 mg/kg
Mus musculus [16] = assay: In vivo inhibition of p65 phosphorylation in BDL-induced C57BL/6J mouse hepatic fibrosis model at 15 to 30 mg/kg, po administered via gavage starting from 3 days post-BDL by Western blot analysis; type: functional, organism-based; details: dose 15-30 mg/kg
Mus musculus [17] = assay: Antifibrotic activity against CCL4-induced C57BL/6J mouse hepatic fibrosis model assessed as reduction in collagen 1 expression in liver at 15 to 30 mg/kg, po administered via gavage for 4 weeks starting from 5th week of CCL4 stimulation by Western blot analysis; type: functional, organism-based; details: dose 15-30 mg/kg
RAW264.7 [18] = assay: Inhibition of LPS-induced NFkappaB transcriptional activity in mouse RAW264.7 cells at 10 uM preincubated for 2 hrs followed by LPS stimulation and measured after 6 hrs by luciferase reporter gene assay relative to control; type: cell-based; details: time 8.0 hrs
RAW264.7 [19] = assay: Antiinflammatory activity in mouse RAW264.7 cells assessed as inhibition of LPS-induced alpha-SMA mRNA expression at 5 to 20 uM preincubated for 2 hrs followed by LPS stimulation and measured after 48 hrs by qRT-PCR analysis; type: functional, cell-based; details: dose 5-20 µM, time 50.0 hrs
Mus musculus [20] = assay: Antifibrotic activity against BDL-induced C57BL/6J mouse hepatic fibrosis model assessed as improvement in histological changes at 15 to 30 mg/kg, po administered via gavage starting from 3 days post-BDL by H and E staining based assay; type: functional, organism-based; details: dose 15-30 mg/kg
Mus musculus [21] = assay: Antifibrotic activity against BDL-induced C57BL/6J mouse hepatic fibrosis model assessed as reduction in collagen deposition in liver at 15 to 30 mg/kg, po administered via gavage starting from 3 days post-BDL by Sirius Red and Masson staining based assay; type: functional, organism-based; details: dose 15-30 mg/kg
Mus musculus [22] = assay: In vivo inhibition of p38 phosphorylation in BDL-induced C57BL/6J mouse hepatic fibrosis model at 15 to 30 mg/kg, po administered via gavage starting from 3 days post-BDL by Western blot analysis; type: functional, organism-based; details: dose 15-30 mg/kg
Mus musculus [23] = assay: Antifibrotic activity against BDL-induced C57BL/6J mouse hepatic fibrosis model assessed as improvement in histological changes at 15 to 30 mg/kg, po administered via gavage starting from 3 days post-BDL; type: functional, organism-based; details: dose 15-30 mg/kg
Mus musculus [24] = assay: In vivo inhibition of Smad3 phosphorylation in CCL4-induced C57BL/6J mouse hepatic fibrosis model at 15 to 30 mg/kg, po administered via gavage for 4 weeks starting from 5th week of CCL4 stimulation by Western blot analysis; type: functional, organism-based; details: dose 15-30 mg/kg
Mus musculus [25] = assay: In vivo inhibition of Smad2 phosphorylation in CCL4-induced C57BL/6J mouse hepatic fibrosis model at 15 to 30 mg/kg, po administered via gavage for 4 weeks starting from 5th week of CCL4 stimulation by Western blot analysis; type: functional, organism-based; details: dose 15-30 mg/kg
RAW264.7 [26] = assay: Antiinflammatory activity in mouse RAW264.7 cells assessed as inhibition of LPS-induced collagen 1 mRNA expression at 5 to 20 uM preincubated for 2 hrs followed by LPS stimulation and measured after 48 hrs by qRT-PCR analysis; type: functional, cell-based; details: dose 5-20 µM, time 50.0 hrs
Mus musculus [27] = assay: Antifibrotic activity against CCL4-induced C57BL/6J mouse hepatic fibrosis model assessed as reduction in hard texture of liver at 15 to 30 mg/kg, po administered via gavage for 4 weeks starting from 5th week of CCL4 stimulation; type: functional, organism-based; details: dose 15-30 mg/kg
Mus musculus [28] = assay: Antifibrotic activity against CCL4-induced C57BL/6J mouse hepatic fibrosis model assessed as reduction in alphaSMA expression in liver at 15 to 30 mg/kg, po administered via gavage for 4 weeks starting from 5th week of CCL4 stimulation by Western blot analysis; type: functional, organism-based; details: dose 15-30 mg/kg

**Q.** `COC(=O)CCC[C@@H]1[C@H]2CCCN3CCC[C@H](CN1C(=O)C(C)c1ccc(-c4ccccc4)c(F)c1)[C@@H]23` (stereo partly drawn) was tested. Which Activity (Mus musculus [1]) did it give?
**A.** Its Activity is “Active”.

**Q.** And the inhibition (LX-2 [2])?
**A.** Its inhibition is “Dose-dependent-effect”.

**Q.** And the Activity (Mus musculus [3])?
**A.** The Activity was “Active”.

**Q.** What about the inhibition (RAW264.7 [4]) of the same compound?
**A.** Its inhibition is “Active”.

**Q.** And the fold change (FC) (RAW264.7 [5])?
**A.** The fold change (FC) was 0.86.

**Q.** What about the inhibition [6] of the same compound?
**A.** Its inhibition is “Dose-dependent-effect”.

**Q.** What about the Activity (Mus musculus [7]) of the same compound?
**A.** The Activity was “Active”.

**Q.** And the Activity (Mus musculus [8])?
**A.** The Activity was “Active”.

**Q.** And the inhibition (LX-2 [9])?
**A.** Its inhibition is “inactive”.

**Q.** What about the inhibition (Mus musculus [10]) of the same compound?
**A.** The inhibition was “inactive”.

**Q.** And the inhibition [11]?
**A.** Its inhibition is “Dose-dependent-effect”.

**Q.** What about the inhibition (Mus musculus [12]) of the same compound?
**A.** Its inhibition is “Active”.

**Q.** What about the inhibition (LX-2 [13]) of the same compound?
**A.** The inhibition was “Dose-dependent-effect”.

**Q.** And the inhibition (Mus musculus [14])?
**A.** Its inhibition is “inactive”.

**Q.** And the inhibition (Mus musculus [15])?
**A.** The inhibition was “Active”.

**Q.** What about the inhibition (Mus musculus [16]) of the same compound?
**A.** The inhibition was “Active”.

**Q.** And the Activity (Mus musculus [17])?
**A.** The Activity was “Active”.

**Q.** And the fold change (FC) (RAW264.7 [18])?
**A.** Its fold change (FC) is 0.71.

**Q.** What about the inhibition (RAW264.7 [19]) of the same compound?
**A.** The inhibition was “Active”.

**Q.** What about the Activity (Mus musculus [20]) of the same compound?
**A.** Its Activity is “Active”.

**Q.** What about the Activity (Mus musculus [21]) of the same compound?
**A.** The Activity was “Active”.

**Q.** What about the inhibition (Mus musculus [22]) of the same compound?
**A.** Its inhibition is “inactive”.

**Q.** And the Activity (Mus musculus [23])?
**A.** Its Activity is “Active”.

**Q.** And the inhibition (Mus musculus [24])?
**A.** The inhibition was “Active”.

**Q.** And the inhibition (Mus musculus [25])?
**A.** The inhibition was “Active”.

**Q.** What about the inhibition (RAW264.7 [26]) of the same compound?
**A.** Its inhibition is “Active”.

**Q.** And the Activity (Mus musculus [27])?
**A.** The Activity was “Active; Significant Alleviation Observed”.

**Q.** And the Activity (Mus musculus [28])?
**A.** Its Activity is “Active”.

Reference: ChEMBL document CHEMBL6177933, “Discovery of Sophoridine α-Aryl Propionamide Derivative ZM600 as a Novel Antihepatic Fibrosis Agent” (J Med Chem, 2024)
